Test results reported in patent US5332733A, “Heterocyclically substituted piperazinoakylbenzoxazine and piperazinoalkylbenzothiazine compounds, processes for preparing them, and medicaments containing them” (Kali-Chemie Pharma GmbH, priority 1990, dated 1994).

Tests used:
mice = conditions: mouse, in vivo, 1440 min
Experimental: 2. Determination of Minimum Toxic Dose
Maximum doses of 300 mg/kg of the test substance were administered orally to male mice weighing 20-25 g. The animals were observed carefully for 3 hours for toxicity symptoms. In addition, all symptoms and deaths were recorded over a period of 24 hours after administration. Associated symptoms were also observed and recorded. If death or severe toxic symptoms were observed, additional mice were administered increasingly lower doses. The lowest dose which produced death or severe toxic symptoms is given in the following Table B as the minimum toxic dose.

[1] = test system: PAF-induced aggregation of rabbit blood platelets; experiment: Anti-PAF activity in vitro, PAF-induced platelet aggregation; type: cell-based, rabbit (New Zealand hybrids); conditions: Oryctolagus cuniculus, test substance 10^-5 mole/l, pH 7.4
Description: 4. Determination of Anti-PAF Activity In Vitro
PAF (=Platelet Activating Factor) is a phospholipid mediator which has many effects. Activation of platelet aggregation induces protracted broncho-contraction and hyper-reactivity of the air paths.
In this test the effect of the test substances on platelet aggregation induced by adding PAF to a suspension of platelets obtained from rabbit blood is investigated using the method described by Mikashima et al. (Jap. J. Pharmacol. 44 (1987) 387-391).
A suspension of platelets obtained from rabbit blood containing 4×10^9 platelets/ml in a modified Tyrode buffer solution (=Tyrode solution with 1.3 mM/l CaCl2 and 2.5 g/l gelatine added) adjusted to pH 7.4 was used. Tyrode solution is an aqueous solution containing 136.9 mmoles NaCl, 2.68 mmoles KCl, 2.31 mmoles CaCl2, 1.0 mmole MgCl2, 11.9 mmoles NaHCO3, 1.45 mmoles NaH2 PO4 and 5.55 mmoles glucose per liter. The platelets were obtained from 10 ml blood samples from each of three rabbits (New Zealand hybrids, body weight 3-4 kg). For this the blood samples were treated with ethylenediamine tetraacetic acid and washed according to the method of Artley et al. (Brit. J. Hematol. 19 (1970), 7-17). A platelet-rich plasma was then initially separated by centrifuging (20 minutes at 400×g). The blood platelets were separated from the plasma by recentrifuging for 15 minutes at 1,400×g. The platelets remaining as sediment after centrifuging were resuspended in a Tyrode buffer solution (but without calcium). 0.4 mmole of lysine acetylsalicylate was then added, and after 15 minutes the platelets were sedimented again. The sediment was resuspended in the aforementioned modified Tyrode buffer solution, and the number of platelets in the resulting suspension was adjusted to the desired content.
A 40×10^-9 molar PAF solution was used as a reagent. This solution was made from a 1.8×10^-3 molar stock solution in chloroform. For this purpose a 10 μl sample of the stock solution was evaporated to dryness and redissolved in 180 μl of the modified Tyrode solution to which 0.25% of lipid-free bovine serum albumin had been added. From this 10^-5 molar working solutions were then prepared and stored frozen. Samples of these solutions were appropriately diluted for the tests.
To carry out the test 50 μl of the platelet suspension and 10 μl of a 40×10^-5 molar solution of the compound being investigated were added with stirring (1,000 rpm) to 330 μl of the modified Tyrode buffer solution in an aggregation tube provided with a small magnetic stirrer. This corresponds to a final test substance concentration of 10^-5 mole/l. After 90 seconds preincubation time, 10 μl of the PAF preparation were added. The aggregation occurring in the aggregation tubes was measured over 4-5 minutes with the aid of a computerized aggregometer.
The aggregation which occurred in test tubes containing only platelet suspension was evaluated as 0%, whereas the aggregation which occurred in test tubes containing platelet suspension and PAF preparation was evaluated as 100%. The aggregation which still occurred during the inhibition of the PAF induced platelet aggregation due to the addition of the test substances was measured, and the resulting aggregation inhibition was calculated therefrom in %.

Structure (SMILES) | Minimum toxic dose (mice) [mg/kg] | inhibition at 10 µM [1] [%]
Cc1ccnc(N2CCN(CCCCC3Sc4ccccc4NC3=O)CC2)c1 (stereo not shown) [Example 1, 2-{4-[4-(4-methylpyridin-2-yl)-piperazin-1-yl]butyl}-2H-1,4-benzothiazine-3(4H)-one] | 300 | –
Cc1ccnc(N2CCN(CCCC3Sc4ccccc4NC3=S)CC2)c1 (stereo not shown) [Example 11] | > 300 | 96
Cc1ccnc(N2CCN(CCCC3Sc4ccccc4NC3=O)CC2)c1 (stereo not shown) [Example 8] | 100 | 48
Cc1ccnc(N2CCN(CCCC3Oc4ccccc4NC3=O)CC2)c1 (stereo not shown) [Example 9] | 300 | 51
